Results as given in publication PMC7023064, “Design, Synthesis, and Evaluation of Novel 2-Methoxyestradiol Derivatives as Apoptotic Inducers through an Intrinsic Apoptosis Pathway” (Biomolecules, 2020).
Like-named read-outs stand apart in the source and are kept apart here.

Experiments:
[1] = system: normal human liver L-O2 cell lines; assay: MTT cytotoxicity assay, L-O2; format: cell-based; settings: mean ± SD of three experiments, No = No inhibition detected
Description: (§1) Human breast adenocarcinoma MCF-7 cell lines, human breast cancer MDA-MB-231 cell lines, and the normal human liver L-O2 cell lines were provided by Nanjing KeyGen Biotech Co. Ltd. (Nanjing, China). MCF-7 cells were cultured in a base medium (90% RPMI-1640 and 10% FBS) at 37 °C, 5% CO2 and a saturated humidity atmosphere. MDA-MB-231 cells were cultured in a base medium (90% […] and 10% FBS) at 37 °C, 5% CO2 and a saturated humidity atmosphere. L-O2 cells were cultured in a base medium (90% DMEM and 10% FBS) at 37 °C, 5% CO2 and a saturated humidity atmosphere.
(§2) The cytotoxicity of the tested compounds was determined using the 3-(4,5-dimethyl-2-thiazolyl)-2,5-diphenyl-2-H-tetrazolium bromide (MTT) assay. Cells were seeded in 96-well plates and incubated in a 5% CO2 incubator at 37 °C. When the cells adhered, compounds at different concentrations were added to every well. After incubation for another 72 h, MTT solution (5 mg/mL) was added into each well and cells were incubated for an additional 4 h. The viable cells were stained with MTT and scanned with an electrophotometer at 570 nm. Each concentration treatment was done in triplicate wells. The half maximal inhibitory concentration (IC50) values were estimated by fitting the inhibition data to a dose-dependent curve using a logistic derivative equation.

[2] = system: human breast cancer MDA-MB-231 cell lines; assay: MTT cytotoxicity assay, MDA-MB-231; format: cell-based; settings: mean ± SD of three experiments
Description: as §1, §2

[3] = system: human breast adenocarcinoma MCF-7 cell lines; assay: MTT cytotoxicity assay, MCF-7; format: cell-based
Description: as §1, §2

[4] = system: MCF-7 and MDA-MB-231 cell lines; assay: MTT assay, summary over tested tumor cells; format: cell-based, human; settings: Homo sapiens; MCF-7 and MDA-MB-231; read-out: IC50, anti-proliferative activity against tested tumor cells
Description: as §1, §2

[5] = Homo sapiens, MCF7, MTT, 72 h, mean ± SD of three experiments, read-out: IC50 MCF-7
[6] = Homo sapiens, MCF7, Table 2, mean ± SD of three experiments, read-out: IC50 for MCF-7
[7] = Homo sapiens, MCF7, pIC50 = −log(IC50), read-out: pIC50 for MCF-7 (converted)
[8] = MTT, 72 h, mean ± SD of three experiments, read-out: IC50 MCF-7
[9] = Table 2, mean ± SD of three experiments, read-out: IC50 for MCF-7

Row | Molecule | IC50 L-O2 ([1]; 72 h) | melting point [°C] | IC50 ([2]; Homo sapiens, MDA-MB-231, 72 h) [µM] | IC50 [3, 5] [µM] | IC50 [3, 6] [µM] | IC50 [3, 7] [µM] | IC50 ([1]; 72 h) [µM] | IC50 ([2]; 72 h) [µM] | IC50 [3, 8] [µM] | IC50 [3, 9] [µM] | pIC50 for MCF-7 ([3]; pIC50 = −log(IC50)) | IC50 ([1]; Homo sapiens, L02, 72 h) [µM] | IC50 [4] [µM]
1 | COc1cc2c(cc1O)CC[C@@H]1[C@@H]2CC[C@]2(C)[C@@H](OCCCCCCn3ccc(=O)n(CCCCCCO[C@H]4CC[C@H]5[C@@H]6CCc7cc(O)c(OC)cc7[C@H]6CC[C@]45C)c3=O)CC[C@@H]12 [Compound 12b, 1,3-bis-{6-[2-Methoxy-3-Hydroxy-Estra-1,3,5(10)-Triene-17β-yl-oxy]-Hexyl}-Uracil] | No ^b | 71 to 73 | > 100 | > 100 | > 100 | > 100 | – | – | – | – | – | – | –
2 | 17 β-[8-(Uracil-3-yl)-Octyloxy]-2-Methoxy-Estra-1,3,5(10)-Triene-3-ol [Compound 14a] | – | – | – | – | – | – | 17.5 ± 0.69 | 8 ± 0.41 | 9.22 ± 0.21 | 9.22 ± 0.21 | 5.04 | – | –
3 | COc1cc2c(cc1OCCCCCCCCn1cc(C)c(=O)n(CCCCCCCCOc3cc4c(cc3OC)[C@H]3CC[C@]5(C)[C@@H](O)CC[C@H]5[C@@H]3CC4)c1=O)CC[C@@H]1[C@@H]2CC[C@]2(C)[C@@H](O)CC[C@@H]12 [Compound 23b, 1,3-bis-{8-[2-Methoxy-17β-Hydroxy-Estra-1,3,5(10)-Triene-3-yl-Oxy]-octyl}-5-Methyl-Uracil] | No | 75 to 76 | > 100 | > 100 | > 100 | > 100 | – | – | – | – | – | – | –
4 | COc1cc2c(cc1O)CC[C@@H]1[C@@H]2CC[C@]2(C)[C@@H](OCCCCCCn3c(=O)ccn([C@@H]4O[C@H](CO)[C@@H](O)[C@H]4O)c3=O)CC[C@@H]12 [Compound 10, 17 β-[6-(1-β-D-Ribofuranosyluracil-3-yl)-Hexyloxy]-2-Methoxy-Estra-1,3,5(10)-Triene-3-ol] | – | 79 to 81 | 13.2 ± 1.09 | 16.7 ± 0.3 | 16.7 ± 0.3 | 16.6 | – | – | – | – | – | 35.2 ± 0.42 | 3.89 to 16.7
5 | 3-[6-(5-Methyl-Uracil-3-yl)-Hexyloxy]-2-Methoxy-Estra-1,3,5(10)-Triene-17β-ol [Compound 21a] | – | – | – | – | – | – | 28.2 ± 0.57 | 7.34 ± 0.56 | 9.97 ± 0.39 | 9.97 ± 0.39 | 5.00 | – | –
6 | COc1cc2c(cc1OCCCCCCn1ccc(=O)n(CCCCCCOc3cc4c(cc3OC)[C@H]3CC[C@]5(C)[C@@H](O)CC[C@H]5[C@@H]3CC4)c1=O)CC[C@@H]1[C@@H]2CC[C@]2(C)[C@@H](O)CC[C@@H]12 [Compound 20b, 1,3-Bis-{6-[2-Methoxy-17β-Hydroxy-Estra-1,3,5(10)-Triene-3-yl-Oxy]-Hexyl}-Uracil] | No | 93 to 94 | > 100 | > 100 | > 100 | > 100 | – | – | – | – | – | – | –
7 | COc1cc2c(cc1O)CC[C@@H]1[C@@H]2CC[C@]2(C)[C@@H](OCCCCCCCCn3ccc(=O)n(CCCCCCCCO[C@H]4CC[C@H]5[C@@H]6CCc7cc(O)c(OC)cc7[C@H]6CC[C@]45C)c3=O)CC[C@@H]12 [Compound 14b, 1,3-Bis-{8-[2-Methoxy-3-Hydroxy-Estra-1,3,5(10)-Triene-17β-yl-Oxy]-Octyl}-Uracil] | No | 73 to 75 | > 100 | > 100 | > 100 | > 100 | – | – | – | – | – | – | –
8 | COc1cc2c(cc1OCCCCCCn1c(=O)ccn([C@@H]3O[C@H](CO)[C@@H](O)[C@H]3O)c1=O)CC[C@@H]1[C@@H]2CC[C@]2(C)[C@@H](O)CC[C@@H]12 [Compound 18, 3-[6-(1-β-D-Ribofuranosyluracil-3-yl)-Hexyloxy]-2-Methoxy-Estra-1,3,5(10)-Triene-17β-ol] | – | 99 to 100 | 3.89 ± 0.36 | 6.21 ± 0.37 | 6.21 ± 0.37 | 6.17 | – | – | – | – | – | 21.3 ± 0.66 | 3.89 to 16.7
9 | 3-[6-(Uracil-3-yl)-Hexyloxy]-2-Methoxy-Estra-1,3,5(10)-Triene-17β-ol [Compound 20a] | – | – | – | – | – | – | 38.5 ± 1.87 | 14 ± 1.69 | 17.9 ± 0.22 | 17.9 ± 0.22 | 4.75 | – | –
10 | 17 β-[8-(5-Methyl-Uracil-3-yl)-Octyloxy]-2-Methoxy-Estra-1,3,5(10)-Triene-3-ol [Compound 15a] | – | – | – | – | – | – | 52.6 ± 1.82 | 19.3 ± 1.54 | 12.1 ± 0.45 | 12.1 ± 0.45 | 4.92 | – | –
